Laboratory results published in publication PMC3979046 (Breast Cancer Research : BCR, 2013).
Read-outs that look alike come from different tables or passages of the source.

How the values were obtained:
[1] = tested on: HER2+ metastatic breast cancer patients refractory to trastuzumab; design: method as in PMID 22689807; details: phase 3 trial, 296 patients, no chemotherapy ref 21; cited from earlier work
[2] = tested on: patients with HER2+ solid tumors; details: in combination with trastuzumab, true MTD not established
Experimental: This phase 1, multicenter, open-label, nonrandomized, dose-defining study was conducted in accordance with the Declaration of Helsinki and the International Conference on Harmonisation Good Clinical Practice Guidelines, and was approved by relevant regulatory and independent ethics committees including Memorial Sloan-Kettering Cancer Center’s Institutional Review Board, Mofftt Cancer Center’s Quorum Review Institutional Review Board, and The National Research Ethics Service, The Royal Marsden Research Ethics Committee. Patients provided written consent prior to enrolling in the trial. […] Dose finding was based on toxicity probability intervals. In brief, three patients were first dosed at each level and advanced according to the toxicity probability interval; up to another 10 patients (total of 13 patients at a dose level) could be assigned to one dose, in which case up to four DLT events in the dose level of 13 patients would be considered tolerable. […] Correlation of antitumor activity with PI3K pathway activation events (that is, circulating tumor DNA and mutations) was an exploratory objective of this trial.
Patients were evaluated at baseline and throughout the course of the study using physical examinations, vital signs, ophthalmologic examinations, 12-lead electrocardiogram cardiac monitoring, laboratory tests, and Eastern Cooperative Oncology Group performance status.

[3] = human, in vivo
[4] = tested on: patients with solid tumors; design: method as in PMID 22025163; details: cited from earlier work
[5] = prior phase 1 studies ref 13; cited from earlier work
[6] = tested on: recombinant human AKT1, AKT2 and AKT3; details: cited from earlier work
[7] = tested on: cytochrome p450 3A4; details: cited from earlier work
[8] = tested on: HER3; design: method as in PMID 21215704; details: via feedback mechanisms ref 11; cited from earlier work
[9] = Plasma pharmacokinetics of MK-2206 given with trastuzumab; details: for Tmax: human, plasma, oral

Row | SMILES | median progression-free survival [1] [weeks] | maximum tolerated dose (MTD) ([2]; QOD schedule) [mg] | maximum tolerated dose (MTD) ([2]; QW schedule) [mg] | patients achieving the 48-hour target of at least 56.8 nM [3] | most significant dose-limiting toxicity (DLT) ([4]; monotherapy ref 13) | maximum tolerable dose (MTD) ([4]; monotherapy, QOD ref 13) [mg] | maximum tolerable dose (MTD), expected ([4]; monotherapy, QW, not established due to early discontinuation ref 13) | dose proportionality [5] | off-target kinase activity [6] | relative potency against AKT isoforms ([6]; recombinant human isoforms ref 12) | metabolizing enzyme [7] | effect on HER3 [8] | patients with trough level at or above the clinical monotherapy efficacy trough target of 56.8 nM ([9]; 45 mg or 60 mg QOD with trastuzumab) | geometric mean ratio of Cmax (last dose/first dose) ([9]; 200 mg QW, multiple dosing for 21 to 22 days) | Tmax [9] [h] | Tmax ([9]; median time to maximum concentration, 135 mg and 200 mg QW with trastuzumab) [h]
1 | CS(=O)(=O)CCNCc1ccc(-c2ccc3ncnc(Nc4ccc(OCc5cccc(F)c5)c(Cl)c4)c3c2)o1 [lapatinib] | 8.1 | – | – | – | – | – | – | – | – | – | – | – | – | – | – | –
2 | NC1(c2ccc(-c3nc4ccn5c(=O)[nH]nc5c4cc3-c3ccccc3)cc2)CCC1 [MK-2206] | – | 60 | 135 | ~ 92% | rash | 60 | less than 250 mg | no substantial departure from dose proportionality | little off-target kinase activities | higher potency against recombinant human AKT1 and AKT2 isoforms than AKT3 | metabolized by cytochrome p450 3A4 | upregulate HER3 | 11/11 | 1.30 | 4 to 6 | 4 to 8
